Results reported in ChEMBL document CHEMBL4602703, “Lead Optimization of a Pyrrole-Based Dihydroorotate Dehydrogenase Inhibitor Series for the Treatment of Malaria” (J Med Chem, 2020).
One block for each molecule: values may come before it.

Experiments:
[1] = Inhibition of N-terminal His6-tagged Plasmodium falciparum DHODH expressed in Escherichia coli BL21(DE3) cells using L-DHO as substrate by DCIP dye based assay
[2] = target: Dihydroorotate dehydrogenase (quinone), mitochondrial (Homo sapiens, UniProt Q02127)
Dihydroorotate dehydrogenase (quinone), mitochondrial, sequence (Q02127 whole entry): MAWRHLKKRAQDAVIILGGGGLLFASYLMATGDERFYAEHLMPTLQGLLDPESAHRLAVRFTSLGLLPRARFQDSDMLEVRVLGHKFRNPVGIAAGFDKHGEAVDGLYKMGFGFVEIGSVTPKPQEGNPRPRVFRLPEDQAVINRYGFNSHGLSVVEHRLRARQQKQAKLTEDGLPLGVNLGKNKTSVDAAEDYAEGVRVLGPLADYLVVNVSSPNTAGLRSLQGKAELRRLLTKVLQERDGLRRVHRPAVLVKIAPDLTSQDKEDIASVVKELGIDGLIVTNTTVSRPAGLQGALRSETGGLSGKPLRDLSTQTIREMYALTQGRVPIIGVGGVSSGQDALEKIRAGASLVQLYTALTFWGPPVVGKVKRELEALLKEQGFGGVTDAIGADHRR

Plasmodium falciparum = experiment: microbe, parasite or virus in culture; details: 3D7, 72 h
[3] = Intrinsic clearance in human liver microsomes assessed as per mg protein; type: ADME, Microsome
[4] = Intrinsic clearance in mouse liver microsomes assessed as per mg protein; type: ADME, Microsome; details: microsomes
Albumin = Albumin (Homo sapiens, UniProt P02768); experiment: Binding affinity to albumin (unknown origin) by chromatographic method; type: ADME; details: albumin, read-out: PB (converted)
Albumin, sequence (P02768 whole entry): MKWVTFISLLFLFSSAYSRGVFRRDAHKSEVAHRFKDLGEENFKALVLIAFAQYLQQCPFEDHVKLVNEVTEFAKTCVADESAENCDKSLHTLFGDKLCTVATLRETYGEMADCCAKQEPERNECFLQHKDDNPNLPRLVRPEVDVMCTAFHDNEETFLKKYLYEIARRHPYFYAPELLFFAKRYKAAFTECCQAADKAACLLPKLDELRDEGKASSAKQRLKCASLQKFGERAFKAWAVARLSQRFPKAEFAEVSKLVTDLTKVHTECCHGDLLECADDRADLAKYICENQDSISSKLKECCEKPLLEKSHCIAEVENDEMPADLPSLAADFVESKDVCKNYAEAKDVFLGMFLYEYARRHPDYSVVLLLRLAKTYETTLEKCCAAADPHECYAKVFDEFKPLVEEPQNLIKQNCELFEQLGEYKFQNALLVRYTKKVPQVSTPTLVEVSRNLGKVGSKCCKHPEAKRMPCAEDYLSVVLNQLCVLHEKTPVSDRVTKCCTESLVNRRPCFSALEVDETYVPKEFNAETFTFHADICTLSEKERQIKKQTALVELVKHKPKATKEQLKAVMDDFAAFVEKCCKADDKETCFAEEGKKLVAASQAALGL

physchem = details: octanol/water, pH 7.4

SMILES: CCCNC(=O)c1[nH]c(C)c(Cc2ccc(C(F)(F)F)cc2)c1C
- IC50 [1]: 300 nM
- IC50 [2]: > 100000 nM
- EC50 (Plasmodium falciparum): 110 nM

SMILES: CCOC(=O)c1[nH]c(C)c(Cc2cccc(OCC)c2)c1C
- IC50 [1]: 830 nM
- IC50 [2]: > 100000 nM
- EC50 (Plasmodium falciparum): 530 nM

SMILES: O=C(NC1CC1)c1[nH]cc(Cc2ccc(C(F)(F)F)nc2)c1CO
- IC50 [1]: 4300 nM
- EC50 (Plasmodium falciparum): 1200 nM

SMILES: COCc1c(Cc2ccc(C(F)(F)F)nc2)c[nH]c1C(=O)NC1CC1
- IC50 [1]: 450 nM
- IC50 [2]: > 100000 nM
- EC50 (Plasmodium falciparum): 240 nM

SMILES: Cc1[nH]c(C(=O)N2CCCC2)cc1Cc1ccc(C(F)(F)F)nc1
- IC50 [1]: > 100000 nM
- microsomal CLint [3]: 226 µL/min/mg
- microsomal CLint [4]: 138 µL/min/mg
- fraction unbound (Albumin): 0.185
- logD (physchem): 3.2
- EC50 (Plasmodium falciparum): > 10000 nM

SMILES: Cc1[nH]c(C(=O)N2CCC2)c(C)c1Cc1ccc(C(F)(F)F)nc1
- IC50 [1]: 140 nM
- microsomal CLint [3]: 31 µL/min/mg
- microsomal CLint [4]: 53 µL/min/mg
- fraction unbound (Albumin): 0.228
- logD (physchem): 2.9
- EC50 (Plasmodium falciparum): 130 nM

SMILES: CCOC(=O)c1[nH]c(C)c(Cc2cc(OC)cc(OC)c2)c1C
- IC50 [1]: 2300 nM
- IC50 [2]: > 100000 nM
- EC50 (Plasmodium falciparum): 10000 nM

- IC50 [1]: > 100000 nM
SMILES: CCOC(=O)c1c(C)c(Cc2ccc(C(F)(F)F)cc2)c(C)n1C

SMILES: Cc1[nH]c(C(=O)NC2CCC2)c(C)c1Cc1ccc(C(F)(F)F)nc1
- IC50 [1]: 42 to 72 nM
- IC50 [2]: > 100000 nM
- EC50 (Plasmodium falciparum): 66 nM

SMILES: Cc1[nH]c(C(=O)NC2CCN(C)CC2)cc1Cc1ccc(C(F)(F)F)nc1
- IC50 [1]: > 100000 nM
- EC50 (Plasmodium falciparum): > 10000 nM

SMILES: Cc1[nH]c(C(=O)NC(C)(C)C)cc1Cc1ccc(C(F)(F)F)nc1
- IC50 [1]: 5700 nM
- EC50 (Plasmodium falciparum): 3500 nM

SMILES: Cc1c(Cc2ccc(C(F)(F)F)nc2)c[nH]c1C(=O)NC(C)(C)C
- IC50 [1]: 110 nM
- IC50 [2]: > 100000 nM
- EC50 (Plasmodium falciparum): 51 nM

SMILES: CCOC(=O)c1[nH]c(C)c(C(=O)c2ccc(C(F)(F)F)cn2)c1C
- IC50 [1]: 21000 nM
- EC50 (Plasmodium falciparum): 6500 nM

SMILES: Cc1c(Cc2ccc(C(F)(F)F)nc2)c[nH]c1C(=O)NC1(C(F)(F)F)CC1
- IC50 [1]: 9300 nM
- EC50 (Plasmodium falciparum): 3900 nM

SMILES: Cc1[nH]c(C(=O)NC2CNC2)cc1Cc1ccc(C(F)(F)F)nc1
- IC50 [1]: > 100000 nM
- EC50 (Plasmodium falciparum): > 20000 nM

SMILES: CCOC(=O)c1[nH]cc(Cc2ccc(C(F)(F)F)cc2)c1C
- IC50 [1]: 130 nM
- IC50 [2]: > 100000 nM
- EC50 (Plasmodium falciparum): 60 nM

SMILES: Cc1[nH]c(C(=O)N2CCC2)c(C)c1Cc1ccc(C(F)(F)F)cn1
- IC50 [1]: 1800 nM
- IC50 [2]: > 100000 nM
- EC50 (Plasmodium falciparum): 1000 nM

SMILES: Cc1[nH]c(C(=O)O)c(C)c1Cc1ccc(C(F)(F)F)cc1
- EC50 (Plasmodium falciparum): > 10000 nM

SMILES: Cc1c(C(=O)NC2CC2)[nH]c(C(F)(F)F)c1Cc1ccc(C(F)(F)F)nc1
- IC50 [1]: 1600 nM
- EC50 (Plasmodium falciparum): 770 nM

SMILES: COc1cc(C(F)(F)F)ccc1Cc1c[nH]c(C(=O)NC2CC2)c1C
- IC50 [1]: 110 nM
- IC50 [2]: > 100000 nM
- EC50 (Plasmodium falciparum): 260 nM

SMILES: Cc1c(Cc2ccc(C(F)(F)F)nc2)c[nH]c1C(=O)C1CC1
- IC50 [1]: 18 nM
- IC50 [2]: > 100000 nM
- EC50 (Plasmodium falciparum): 9.9 nM

SMILES: CCOC(=O)c1[nH]cc(Cc2ccc(C(F)(F)F)cc2Cl)c1C
- IC50 [1]: 42 nM
- IC50 [2]: > 100000 nM
- EC50 (Plasmodium falciparum): 29 nM

SMILES: Cc1c(Cc2ccc(C(F)(F)F)nc2)c[nH]c1C(=O)N1CC(F)C1
- IC50 [1]: 120 nM
- microsomal CLint [3]: 7 µL/min/mg
- microsomal CLint [4]: 145 µL/min/mg
- IC50 [2]: > 100000 nM
- EC50 (Plasmodium falciparum): 51 nM

SMILES: Cc1[nH]c(C(=O)NC2CN(C)C2)cc1Cc1ccc(C(F)(F)F)nc1
- IC50 [1]: > 100000 nM
- EC50 (Plasmodium falciparum): > 20000 nM

SMILES: CCOC(=O)c1[nH]cc(Cc2ccc(C(F)(F)F)cc2OC)c1C
- IC50 [1]: 1100 nM
- EC50 (Plasmodium falciparum): 810 nM

SMILES: Cc1c(Cc2c(F)cc(C(F)(F)F)cc2F)c[nH]c1C(=O)NC1CC1
- IC50 [1]: 1200 nM
- EC50 (Plasmodium falciparum): 420 nM

SMILES: Cc1c(Cc2ccc(C(F)(F)F)nc2)c[nH]c1C(=O)N1CCCC1
- IC50 [1]: 9800 nM
- EC50 (Plasmodium falciparum): 4800 nM

- IC50 [1]: > 100000 nM
- microsomal CLint [3]: 8 µL/min/mg
- microsomal CLint [4]: 24 µL/min/mg
- fraction unbound (Albumin): 0.496
- logD (physchem): 2.4
- EC50 (Plasmodium falciparum): 10000 to 20000 nM
SMILES: Cc1[nH]c(C(=O)NC2CC2)c(C)c1C(=O)c1ccc(C(F)(F)F)cn1

SMILES: Cc1c(Cc2ccc(C(F)(F)F)nc2)c[nH]c1C(=O)NC(C)C
- IC50 [1]: 80 nM
- IC50 [2]: > 100000 nM
- EC50 (Plasmodium falciparum): 13 nM

SMILES: Cc1[nH]c(C(=O)N2CCCCC2)cc1Cc1ccc(C(F)(F)F)nc1
- IC50 [1]: > 100000 nM
- microsomal CLint [3]: 173 µL/min/mg
- microsomal CLint [4]: 93 µL/min/mg
- fraction unbound (Albumin): 0.125
- logD (physchem): 3.5
- EC50 (Plasmodium falciparum): > 20000 nM

SMILES: Cc1[nH]c(C(=O)N(C)C)c(C)c1Cc1ccc(C(F)(F)F)nc1
- IC50 [1]: > 30000 nM
- EC50 (Plasmodium falciparum): > 10000 nM

SMILES: Cc1[nH]c(C(=O)NC(C)C)cc1Cc1ccc(C(F)(F)F)nc1
- IC50 [1]: 2800 nM
- EC50 (Plasmodium falciparum): 1900 nM

SMILES: CCOC(=O)c1[nH]cc(Cc2c(F)cc(C(F)(F)F)cc2F)c1C
- IC50 [1]: > 30000 nM
- EC50 (Plasmodium falciparum): > 10000 nM

SMILES: CCOC(=O)c1[nH]cc(Cc2ccc(C#N)nc2)c1C
- IC50 [1]: 630 nM
- EC50 (Plasmodium falciparum): 200 nM

SMILES: Cc1[nH]c(C(=O)NC2CCC2)c(C)c1Cc1ccc(C(F)(F)F)cn1
- IC50 [1]: 410 nM
- IC50 [2]: > 100000 nM
- EC50 (Plasmodium falciparum): 470 to 680 nM

SMILES: Cc1[nH]c(C(=O)NC2CCNCC2)cc1Cc1ccc(C(F)(F)F)nc1
- IC50 [1]: > 100000 nM
- EC50 (Plasmodium falciparum): > 10000 nM

SMILES: Cc1[nH]c(C(=O)NC2CC2)cc1Cc1cnc(C(F)(F)F)nc1
- IC50 [1]: > 100000 nM
- microsomal CLint [3]: < 7 µL/min/mg
- microsomal CLint [4]: 8 µL/min/mg
- fraction unbound (Albumin): 0.555
- logD (physchem): 2.5
- EC50 (Plasmodium falciparum): > 10000 nM

SMILES: Cc1c(Cc2cnc(C(F)(F)F)nc2)c[nH]c1C(=O)NC1CC1
- microsomal CLint [3]: < 7 µL/min/mg
- IC50 [2]: > 100000 nM
- logD (physchem): 2.5
- EC50 (Plasmodium falciparum): 390 nM

SMILES: CCCC(=O)c1[nH]cc(Cc2ccc(C(F)(F)F)nc2)c1C
- IC50 [1]: 98 nM
- IC50 [2]: > 100000 nM
- EC50 (Plasmodium falciparum): 65 nM

SMILES: CCOC(=O)c1[nH]c(C)c(Cc2ccc(OCC)cc2)c1C
- microsomal CLint [3]: 188 µL/min/mg
- microsomal CLint [4]: 470 µL/min/mg
- IC50 [2]: > 100000 nM
- logD (physchem): 4.5
- EC50 (Plasmodium falciparum): 230 to 250 nM

SMILES: CCCCNC(=O)c1[nH]c(C)c(Cc2ccc(C(F)(F)F)cc2)c1C
- IC50 [1]: 9900 nM
- IC50 [2]: > 100000 nM
- EC50 (Plasmodium falciparum): 710 nM

SMILES: CCOC(=O)c1[nH]cc(Cc2ccc(C(F)(F)F)cc2F)c1C
- IC50 [1]: 35 nM
- IC50 [2]: > 100000 nM
- EC50 (Plasmodium falciparum): 28 nM

SMILES: CCNC(=O)c1[nH]c(C)c(Cc2ccc(C(F)(F)F)cc2)c1C
- IC50 [1]: 140 nM
- IC50 [2]: > 100000 nM
- EC50 (Plasmodium falciparum): 51 nM

SMILES: Cc1[nH]c(C(=O)NC2CCOCC2)cc1Cc1ccc(C(F)(F)F)nc1
- IC50 [1]: > 100000 nM
- EC50 (Plasmodium falciparum): > 10000 nM

SMILES: CCOC(=O)c1[nH]c(C)c(Cc2ccc(C(F)(F)F)cn2)c1C
- IC50 [1]: 300 nM
- IC50 [2]: > 100000 nM
- EC50 (Plasmodium falciparum): 100 nM

SMILES: Cc1c(Cc2ccc(C(F)(F)F)nc2)c[nH]c1C(=O)NC1CC(F)C1 (configuration not stated)
- IC50 [1]: 320 nM
- EC50 (Plasmodium falciparum): 170 nM

SMILES: CCN(CC)C(=O)c1[nH]c(C)c(Cc2ccc(C(F)(F)F)nc2)c1C
- IC50 [1]: 13000 nM
- EC50 (Plasmodium falciparum): > 10000 nM

SMILES: Cc1c(Cc2cccnc2)c[nH]c1C(=O)NC1CC1
- IC50 [1]: > 100000 nM
- microsomal CLint [3]: 19 µL/min/mg
- microsomal CLint [4]: 138 µL/min/mg
- fraction unbound (Albumin): 0.268
- EC50 (Plasmodium falciparum): > 10000 nM

SMILES: Cc1c(Cc2ccc(C(F)(F)F)nc2)c[nH]c1C(=O)NS(C)(=O)=O
- IC50 [1]: > 100000 nM
- EC50 (Plasmodium falciparum): > 100000 nM

SMILES: CCOC(=O)c1[nH]c(C)c(Cc2ccc(C(C)C)cc2)c1C
- IC50 [1]: 570 nM
- IC50 [2]: > 100000 nM
- EC50 (Plasmodium falciparum): 470 nM

SMILES: Cc1c(Cc2ccc(C(F)(F)F)nc2)c[nH]c1C(=O)NC1CC(F)(F)C1
- IC50 [1]: 3600 nM
- EC50 (Plasmodium falciparum): 1300 nM

SMILES: Cc1[nH]c(C(=O)NC2CC2)c(C)c1Cc1ccc(C(F)(F)F)cn1
- IC50 [1]: 440 nM
- EC50 (Plasmodium falciparum): 340 nM
